Reference: ChEMBL document CHEMBL1134332, “Design of remarkably simple, yet potent urea-based inhibitors of glutamate carboxypeptidase II (NAALADase)” (J Med Chem, 2001)
pIC50: −log10 of the molar value. One block for each molecule: values may come before it. The source made the active and inactive calls. No cut-off for these calls is given here. Peptide text beside a SMILES is read from it.

Legend:
[1] = target: Glutamate carboxypeptidase 2 (Rattus norvegicus) (UniProt P70627); experiment: Percentage inhibition at 1 uM against rat Glutamate carboxypeptidase II, using a substrate concentration of 5 uM
[2] = target: T1, Glutamate carboxypeptidase 2 (Rattus norvegicus, UniProt P70627); experiment: Inhibitory activity against expressed rat Glutamate carboxypeptidase II, using a substrate concentration of 5 uM
[3] = target: T1, Glutamate carboxypeptidase 2; experiment: Inhibitory activity against expressed rat Glutamate carboxypeptidase IIusing a substrate concentration of 5 uM
[4] = target: Glutamate carboxypeptidase 2 (Rattus norvegicus) (UniProt P70627); experiment: Percentage inhibition at 1 uM against rat Glutamate carboxypeptidase II using a substrate concentration of 5 uM
[5] = target: Glutamate carboxypeptidase 2 (Rattus norvegicus) (UniProt P70627); experiment: Percentage inhibition at 1 uM; IA means inactive
[6] = target: Glutamate carboxypeptidase 2 (Rattus norvegicus) (UniProt P70627); experiment: Percentage inhibition at 100 uM

Chain of Glutamate carboxypeptidase 2 (Rattus norvegicus) (P70627 whole entry, looked up): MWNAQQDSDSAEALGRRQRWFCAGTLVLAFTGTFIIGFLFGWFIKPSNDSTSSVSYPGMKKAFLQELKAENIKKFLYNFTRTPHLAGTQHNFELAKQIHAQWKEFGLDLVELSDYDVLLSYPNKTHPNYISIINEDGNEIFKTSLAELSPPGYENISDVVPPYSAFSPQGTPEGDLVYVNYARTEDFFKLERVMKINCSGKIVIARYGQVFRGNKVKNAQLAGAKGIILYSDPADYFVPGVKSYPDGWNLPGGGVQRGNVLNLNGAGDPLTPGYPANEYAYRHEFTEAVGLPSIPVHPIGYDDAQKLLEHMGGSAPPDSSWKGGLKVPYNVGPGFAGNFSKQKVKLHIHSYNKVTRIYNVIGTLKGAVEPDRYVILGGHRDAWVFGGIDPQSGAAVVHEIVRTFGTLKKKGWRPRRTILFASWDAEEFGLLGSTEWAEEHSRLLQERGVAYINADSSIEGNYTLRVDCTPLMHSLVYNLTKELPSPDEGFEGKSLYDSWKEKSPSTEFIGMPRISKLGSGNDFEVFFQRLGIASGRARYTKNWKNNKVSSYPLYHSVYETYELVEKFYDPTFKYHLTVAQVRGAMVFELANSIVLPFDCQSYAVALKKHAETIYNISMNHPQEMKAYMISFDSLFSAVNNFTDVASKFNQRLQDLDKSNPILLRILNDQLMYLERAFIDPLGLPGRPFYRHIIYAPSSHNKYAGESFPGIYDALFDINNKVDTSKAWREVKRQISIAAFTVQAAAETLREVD
T1 sequence (P70627 whole entry): as the sequence (P70627 whole entry, looked up) above

Structure (SMILES): O=C(O)CC[C@H](NC(=O)C(=O)N[C@@H](CCC(=O)O)C(=O)O)C(=O)O
inhibition [1]: 9%

Structure (SMILES): O=C(O)CC[C@H](NC(=O)N[C@@H](CS)C(=O)O)C(=O)O
pIC50 [2]: 8.16

Structure (SMILES): N[C@@H](CCC(=O)O)C(=O)N[C@@H](CCC(=O)O)C(=O)O (H-Glu-Glu-OH)
pIC50 [2]: 6.12

Structure (SMILES): CC(C)(C)SCC(NC(=O)N[C@@H](CCC(=O)O)C(=O)O)C(=O)O (stereo partly specified)
pIC50 [2]: 7.54

Structure (SMILES): CC(C)(C)NC(=O)N[C@@H](CCC(=O)O)C(=O)O
inhibition [4]: 10%

Structure (SMILES): O=C(O)CCC(CP(=O)(O)O)C(=O)O (stereo unspecified)
pIC50 [2]: 8.29

Structure (SMILES): O=C(N[C@@H](CS)C(=O)O)N[C@@H](CS)C(=O)O
IA [5]: inactive

Further lines, results first:

pIC50 [3]: 5.62
Structure (SMILES): N[C@@H](CC(=O)O)C(=O)N[C@@H](CCC(=O)O)C(=O)O (H-Asp-Glu-OH)

pIC50 [2]: 7.66
Structure (SMILES): O=C(O)CC[C@H](CP(=O)(O)C[C@@H](CCC(=O)O)C(=O)O)C(=O)O

inhibition [4]: 46%
Structure (SMILES): O=C(O)CC[C@H](NC(=O)NCC(=O)O)C(=O)O

inhibition [6]: 42%
Structure (SMILES): N[C@@H](CC(=O)O)C(=O)N[C@@H](CC(=O)O)C(=O)O (H-Asp-Asp-OH)
